# T1: ST6GalNAc4 (Homo sapiens, UniProt Q9H4F1)
# T1 construct: purchased R&D Systems (Bio-Techne, Minneapolis, MN)
# T1 sequence (Q9H4F1 1-302): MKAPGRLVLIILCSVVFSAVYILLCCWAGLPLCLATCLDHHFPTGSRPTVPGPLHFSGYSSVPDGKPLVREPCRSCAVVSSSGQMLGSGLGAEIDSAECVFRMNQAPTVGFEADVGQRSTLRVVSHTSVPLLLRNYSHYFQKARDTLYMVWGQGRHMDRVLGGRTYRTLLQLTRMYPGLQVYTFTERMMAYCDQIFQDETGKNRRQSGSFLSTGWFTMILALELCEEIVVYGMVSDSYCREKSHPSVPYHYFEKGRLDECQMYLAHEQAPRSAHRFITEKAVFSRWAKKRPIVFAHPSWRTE
# T2: ST6GalNAc2 (Homo sapiens, UniProt Q9UJ37)
# T2 sequence (Q9UJ37 1-374): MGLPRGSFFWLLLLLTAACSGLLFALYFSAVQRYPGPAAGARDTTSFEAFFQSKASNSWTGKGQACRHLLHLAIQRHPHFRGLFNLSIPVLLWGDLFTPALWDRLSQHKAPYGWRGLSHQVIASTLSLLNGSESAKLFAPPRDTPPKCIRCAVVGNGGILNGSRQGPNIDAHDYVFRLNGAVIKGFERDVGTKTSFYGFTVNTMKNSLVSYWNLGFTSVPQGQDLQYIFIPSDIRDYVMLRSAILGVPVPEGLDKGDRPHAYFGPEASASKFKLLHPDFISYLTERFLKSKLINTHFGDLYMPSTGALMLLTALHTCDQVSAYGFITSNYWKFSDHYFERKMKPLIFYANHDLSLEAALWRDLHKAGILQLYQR
# T3: ST3Gal4 (Homo sapiens, UniProt Q11206)
# T3 construct: purchased R&D Systems (Bio-Techne, Minneapolis, MN)
# T3 sequence (Q11206 1-333): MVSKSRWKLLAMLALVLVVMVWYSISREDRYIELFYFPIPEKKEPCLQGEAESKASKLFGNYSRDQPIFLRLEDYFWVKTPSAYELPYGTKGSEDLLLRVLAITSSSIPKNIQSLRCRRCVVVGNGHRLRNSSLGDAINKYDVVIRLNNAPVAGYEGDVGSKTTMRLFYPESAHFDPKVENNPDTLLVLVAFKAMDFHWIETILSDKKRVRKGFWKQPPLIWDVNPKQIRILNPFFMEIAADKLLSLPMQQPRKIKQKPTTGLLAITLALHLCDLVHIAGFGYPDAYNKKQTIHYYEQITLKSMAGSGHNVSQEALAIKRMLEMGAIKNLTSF
# T4: ST6GalNAc1 (Homo sapiens, UniProt Q9NSC7)
# T4 construct: purchased R&D Systems (Bio-Techne, Minneapolis, MN)
# T4 sequence (Q9NSC7 1-600): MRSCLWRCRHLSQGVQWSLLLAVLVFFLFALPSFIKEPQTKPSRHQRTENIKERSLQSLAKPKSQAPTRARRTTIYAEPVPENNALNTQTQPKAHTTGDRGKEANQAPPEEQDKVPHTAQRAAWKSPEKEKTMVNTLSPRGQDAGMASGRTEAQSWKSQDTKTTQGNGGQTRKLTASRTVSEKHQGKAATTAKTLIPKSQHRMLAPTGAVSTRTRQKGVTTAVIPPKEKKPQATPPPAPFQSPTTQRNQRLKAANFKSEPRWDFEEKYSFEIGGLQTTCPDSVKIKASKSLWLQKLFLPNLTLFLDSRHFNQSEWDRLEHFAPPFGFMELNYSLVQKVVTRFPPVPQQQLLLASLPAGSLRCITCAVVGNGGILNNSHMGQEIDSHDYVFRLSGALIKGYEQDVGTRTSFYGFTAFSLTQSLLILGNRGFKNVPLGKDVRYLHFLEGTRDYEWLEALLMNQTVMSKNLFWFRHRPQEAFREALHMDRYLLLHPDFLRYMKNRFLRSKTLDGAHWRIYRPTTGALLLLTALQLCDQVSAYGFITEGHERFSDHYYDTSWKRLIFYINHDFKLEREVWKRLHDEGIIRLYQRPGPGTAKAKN
# T5: ST3Gal1 (Homo sapiens, UniProt Q11201)
# T5 construct: purchased R&D Systems (Bio-Techne, Minneapolis, MN)
# T5 sequence (Q11201 1-340): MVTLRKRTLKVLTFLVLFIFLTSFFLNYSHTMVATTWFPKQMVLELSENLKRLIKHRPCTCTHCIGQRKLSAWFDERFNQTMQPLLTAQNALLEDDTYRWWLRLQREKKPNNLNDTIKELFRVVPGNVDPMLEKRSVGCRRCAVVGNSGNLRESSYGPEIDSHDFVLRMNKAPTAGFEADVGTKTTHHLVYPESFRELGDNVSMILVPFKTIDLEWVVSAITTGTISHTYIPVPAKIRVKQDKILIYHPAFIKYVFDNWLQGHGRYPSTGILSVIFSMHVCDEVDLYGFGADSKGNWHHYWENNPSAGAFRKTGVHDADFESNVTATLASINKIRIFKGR
# T6: ST6Gal1 (Homo sapiens, UniProt P15907)
# T6 construct: purchased R&D Systems (Bio-Techne, Minneapolis, MN)
# T6 sequence (P15907 1-406): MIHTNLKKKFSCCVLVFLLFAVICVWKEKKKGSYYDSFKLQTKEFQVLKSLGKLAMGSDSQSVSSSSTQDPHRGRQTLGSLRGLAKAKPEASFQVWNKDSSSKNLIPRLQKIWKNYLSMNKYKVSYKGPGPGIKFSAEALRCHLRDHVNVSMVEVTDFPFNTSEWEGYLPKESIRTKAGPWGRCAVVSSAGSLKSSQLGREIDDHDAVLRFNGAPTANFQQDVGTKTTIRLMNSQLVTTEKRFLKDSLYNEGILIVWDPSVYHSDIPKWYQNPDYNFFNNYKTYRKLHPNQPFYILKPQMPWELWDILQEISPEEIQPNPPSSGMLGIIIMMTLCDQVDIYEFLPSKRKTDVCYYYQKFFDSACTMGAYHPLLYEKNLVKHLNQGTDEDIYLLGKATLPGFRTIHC
# T7: ST3Gal2 (Homo sapiens, UniProt Q16842)
# T7 construct: purchased R&D Systems (Bio-Techne, Minneapolis, MN)
# T7 sequence (Q16842 1-350): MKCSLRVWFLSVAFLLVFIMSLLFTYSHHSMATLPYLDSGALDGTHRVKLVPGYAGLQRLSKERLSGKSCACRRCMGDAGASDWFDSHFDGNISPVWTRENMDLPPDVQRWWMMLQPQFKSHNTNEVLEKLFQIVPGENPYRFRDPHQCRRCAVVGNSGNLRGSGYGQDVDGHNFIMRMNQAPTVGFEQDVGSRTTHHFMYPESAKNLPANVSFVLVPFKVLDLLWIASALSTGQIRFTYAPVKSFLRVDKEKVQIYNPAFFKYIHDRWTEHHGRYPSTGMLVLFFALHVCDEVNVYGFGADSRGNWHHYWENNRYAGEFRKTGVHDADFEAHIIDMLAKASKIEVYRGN
# B1: FUCA1: a lysosomal enzyme that hydrolyze α-fucose residues from glycans (protein, UniProt P04066 32-466, looked up)
# Tissue alpha-L-fucosidase: QPPRRYTPDWPSLDSRPLPAWFDEAKFGVFIHWGVFSVPAWGSEWFWWHWQGEGRPQYQRFMRDNYPPGFSYADFGPQFTARFFHPEEWADLFQAAGAKYVVLTTKHHEGFTNWPSPVSWNWNSKDVGPHRDLVGELGTALRKRNIRYGLYHSLLEWFHPLYLLDKKNGFKTQHFVSAKTMPELYDLVNSYKPDLIWSDGEWECPDTYWNSTNFLSWLYNDSPVKDEVVVNDRWGQNCSCHHGGYYNCEDKFKPQSLPDHKWEMCTSIDKFSWGYRRDMALSDVTEESEIISELVQTVSLGGNYLLNIGPTKDGLIVPIFQERLLAVGKWLSINGEAIYASKPWRVQWEKNTTSVWYTSKGSAVYAIFLHWPENGVLNLESPITTSTTKITMLGIQGDLKWSTDPDKGLFISLPQLPPSAVPAEFAWTIKLTGVK
# Assays:
# ST6GalNAc4 = target: T1, ST6GalNAc4; test: DFGL with fluorophore-conjugated sialic acid by ST6GalNAc4; type: biochemical; parameters: key to Relative tolerance of the fluorophore by ST6GalNAc4: +++: indicated by + and − signs only; ++: indicated by + and − signs only; indicated by + and − signs only; indicated by + and − signs only; conditions: for Relative tolerance of the fluorophore by ST6GalNAc4: fluorophore-conjugated sialic acid donor, acceptor O-GalNAc, with sialylated terminal Gal, FIG. 2
# ST6GalNAc2 = target: T2, ST6GalNAc2; test: DFGL with fluorophore-conjugated sialic acid by ST6GalNAc2; type: biochemical; parameters: key: +++: indicated by + and − signs only; ++: indicated by + and − signs only; indicated by + and − signs only; indicated by + and − signs only; conditions: fluorophore-conjugated sialic acid donor; acceptor O-GalNAc, sialylation on terminal Gal is flexible; FIG. 2
# ST3Gal4 = target: T3, ST3Gal4; test: DFGL with fluorophore-conjugated sialic acid by ST3Gal4; type: biochemical; parameters: key: +++: indicated by + and − signs only; ++: indicated by + and − signs only; indicated by + and − signs only; indicated by + and − signs only; conditions: fluorophore-conjugated sialic acid donor; acceptor Gal of N-glycan; fluorescence intensity of labeled fetuin or asialofetuin in FIG. 2
# ST6GalNAc1 = target: T4, ST6GalNAc1; test: DFGL with fluorophore-conjugated sialic acid by ST6GalNAc1; type: biochemical; parameters: key: +++: indicated by + and − signs only; ++: indicated by + and − signs only; indicated by + and − signs only; indicated by + and − signs only; conditions: fluorophore-conjugated sialic acid donor; acceptor O-GalNAc, sialylation on terminal Gal is flexible; FIG. 2
# ST3Gal1 = target: T5, ST3Gal1; test: Direct fluorescent glycan labeling (DFGL) with fluorophore-conjugated sialic acid by ST3Gal1; type: biochemical; parameters: key to Relative tolerance of the fluorophore by ST3Gal1: +++: indicated by + and − signs only; ++: indicated by + and − signs only; indicated by + and − signs only; indicated by + and − signs only; conditions: fluorophore-conjugated sialic acid donor; acceptor Gal of Core-1 O-glycan; fluorescence intensity of labeled fetuin or asialofetuin in FIG. 2
# ST6Gal1 = target: T6, ST6Gal1; test: DFGL with fluorophore-conjugated sialic acid by ST6Gal1; type: biochemical; parameters: key to Relative tolerance of the fluorophore by ST6Gal1: +++: indicated by + and − signs only; ++: indicated by + and − signs only; indicated by + and − signs only; indicated by + and − signs only; conditions: fluorophore-conjugated sialic acid donor; acceptor Gal of N-glycan; fluorescence intensity of labeled fetuin or asialofetuin in FIG. 2
# ST3Gal2 = target: T7, ST3Gal2; test: DFGL with fluorophore-conjugated sialic acid by ST3Gal2; type: biochemical; parameters: key: +++: indicated by + and − signs only; ++: indicated by + and − signs only; indicated by + and − signs only; indicated by + and − signs only; conditions: fluorophore-conjugated sialic acid donor; acceptor Gal of Core-1 O-glycan; fluorescence intensity of labeled fetuin or asialofetuin in FIG. 2
# fetuin and asialofetuin = test: PNGase F and FUCA1 treatment of labeled fetuin and asialofetuin; type: biochemical, bovine; conditions: Cy5, FIG. 18B
# Procedure: FIG. 18A-FIG. 18B show characterization of the labeled glycans on fetuin (Fet) and asialofetuin (AF) with PNGase F and FUCA1. FIG. 18A. PNGase F treatment of the labeled samples. […] Fet was labeled by FUT7 (F7) with Alexa Fluor® 488 (blue). Labeled samples were then treated with PNGase F to release the glycans. FIG. 18B. Effect of FUCA1 on the labeling. Samples without or with FUCA1 treatment were labeled by the indicated enzymes with Cy5. All samples were separated on 15% SDS-PAGE and imaged by silver staining, TCE staining and fluorescent imaging as indicated. M, Western blot molecular marker.
# For a typical labeling reaction, 1 μg to 5 μg target protein was mixed with 0.2 nmol fluorophore-conjugated GDP-fucose and 0.2 μg of a fucosyltransferase in 30μL 25 mM Tris pH 7.5, 10 mM MnCl2. The mixture was incubated at 37° C. for 30 minutes. […] To release labeled glycans from a glycoprotein, the sample was first denatured by heating at 95° C. for two minutes in the presence of 0.5% SDS and 80 mM β-mercaptoethanol and then renatured with 1% Triton X-100, and finally treated with PNGase F at 10:1 mass ratio at 37° C. for 20 minutes. To release glycans from antibody, a sample was directly treated with Endo S at 10:1 mass ratio at 37° C. for 20 minutes. All samples were separated by sodium dodecyl sulfate—polyacrylamide gel electrophoresis (SDS-PAGE) at volts/cm. […]
Molecule,Relative tolerance of the fluorophore by ST6GalNAc4 (ST6GalNAc4),Relative tolerance of the fluorophore by ST6GalNAc2 (ST6GalNAc2),Relative tolerance of the fluorophore by ST3Gal4 (ST3Gal4),Relative tolerance of the fluorophore by ST6GalNAc1 (ST6GalNAc1),Relative tolerance of the fluorophore by ST3Gal1 (ST3Gal1),Relative tolerance of the fluorophore by ST6Gal1 (ST6Gal1),Relative tolerance of the fluorophore by ST3Gal2 (ST3Gal2),"Fluorophore preference of ST6GalNAc4 (ST6GalNAc4; Alexa Fluor® 555 over Cy5, FIG. 2)",Change of labeling on FUT7 labeled fetuin after the treatment (fetuin and asialofetuin)
cytidine monophosphate activated Alexa-Fluor®488-conjugated sialic acid [CMP-AF488-SA],+,−,+,++,+,+++,+++,,
cytidine monophosphate activated Alexa-Fluor® 555-conjugated sialic acid [CMP-AF555-SA],+++,+,++,++,++,++,+++,strong preference,
B1,,,,,,,,,two-fold increase
